Results reported in US20230233569A1 (Revolution Medicines, Inc., priority 2020, published 2023).
“And” between values parts separate entries of the source, which are not always exact repeats. Equal entries are not always repeated. Where two headings read alike, the source gives them in different places.

Tests used:
NCI-H358 (K-Ras G12C) = assay: CellTiter-Glo cell viability assay, 5-day treatment; format: cell-based; settings: Homo sapiens
Procedure: Protocol: CellTiter-Glo® Cell Viability Assay
Note—The following protocol describes a procedure for monitoring cell viability of K-Ras mutant cancer cell lines in response to a compound of the invention. Other RAS isoforms may be employed, though the number of cells to be seeded will vary based on cell line used.
Test compounds (132.5 nL) were directly dispensed into the assay plates containing cells. […] On day 5, assay plates and their contents were equilibrated to room temperature for approximately 30 minutes. […] Luminescence was measured using the PerkinElmer Enspire. Data were normalized by the following: (Sample signal/Avg. DMSO)*100. The data were fit using a four-parameter logistic fit.
Test compounds (132.5 nl) were directly dispensed into the assay plates containing cells. […] On day 5, assay plates and their contents were equilibrated to room temperature for approximately 30 minutes. […] Luminescence was measured using the PerkinElmer Enspire. Data were normalized by the following: (Sample signal/Avg. DMSO)*100. The data were fit using a four-parameter logistic fit.

NRAS G12C = NRAS G12C (Homo sapiens, UniProt P01111+P62937, G12C); assay: Disruption of BRAF RBD interaction with Ras (FRET / MOA assay, with Cyclophilin A); format: biochemical; settings: NRAS G12C; read-out: NRAS G12C FRET data IC50
NRAS G12C, sequence (P01111 whole entry G12C): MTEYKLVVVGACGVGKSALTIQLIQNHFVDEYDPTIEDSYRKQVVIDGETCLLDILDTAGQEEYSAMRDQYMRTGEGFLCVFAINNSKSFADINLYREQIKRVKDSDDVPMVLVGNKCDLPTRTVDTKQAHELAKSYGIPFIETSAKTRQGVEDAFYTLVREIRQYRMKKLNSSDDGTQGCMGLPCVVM
NRAS G12C, sequence (P62937 whole entry): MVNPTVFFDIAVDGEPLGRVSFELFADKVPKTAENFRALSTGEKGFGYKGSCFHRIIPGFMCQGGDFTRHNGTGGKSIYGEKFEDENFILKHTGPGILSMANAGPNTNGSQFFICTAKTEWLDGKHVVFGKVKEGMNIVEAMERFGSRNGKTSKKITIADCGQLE
Description: (§1) This protocol may also be executed substituting other Ras proteins or nucleotides.
(§2) The purpose of this biochemical assay was to measure the ability of test compounds to facilitate ternary complex formation between a nucleotide-loaded K-Ras isoform and Cyclophilin A; the resulting ternary complex disrupts binding to a BRAF^RBD construct, inhibiting K-Ras signaling through a RAF effector. Data is reported as IC50 values.
(§3) Compound was present in plate wells as a 10-point 3-fold dilution series starting at a final concentration of 30 μM. After incubation at 25° C. for 3 hours, a mixture of Anti-His Eu-W1024 and anti-GST allophycocyanin was then added to assay sample wells at final concentrations of 10 nM and 50 nM, respectively, and the reaction incubated for an additional 1.5 hours. […] Compounds that facilitate disruption of a K-Ras:RAF complex were identified as those eliciting a decrease in the TR-FRET ratio relative to DMSO control wells.
(§4) The purpose of this biochemical assay was to measure the ability of test compounds to facilitate ternary complex formation between a nucleotide-loaded K-Ras isoform and Cyclophilin A; the resulting ternary complex disrupts binding to a BRAF^RBDD construct, inhibiting K-Ras signaling through a RAF effector. Data is reported as IC50 values.

KRAS G13C = KRAS G13C (Homo sapiens, UniProt P01116+P62937, G13C); assay: as above; format: biochemical
KRAS G13C, sequence (P01116 1-169 isoform P01116-2 G13C): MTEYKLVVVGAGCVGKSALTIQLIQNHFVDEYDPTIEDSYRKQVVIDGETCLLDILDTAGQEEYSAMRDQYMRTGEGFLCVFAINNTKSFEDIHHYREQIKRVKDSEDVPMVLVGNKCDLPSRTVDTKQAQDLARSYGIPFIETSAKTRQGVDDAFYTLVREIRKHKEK
KRAS G13C, sequence (P62937 whole entry): as the sequence (P62937 whole entry) above
Description: as §1, §2, §3, §4

KRAS G12C = KRAS G12C (Homo sapiens, UniProt P01116+P62937, G12C); assay: as above; format: biochemical
KRAS G12C, sequence (P01116 1-169 isoform P01116-2 G12C): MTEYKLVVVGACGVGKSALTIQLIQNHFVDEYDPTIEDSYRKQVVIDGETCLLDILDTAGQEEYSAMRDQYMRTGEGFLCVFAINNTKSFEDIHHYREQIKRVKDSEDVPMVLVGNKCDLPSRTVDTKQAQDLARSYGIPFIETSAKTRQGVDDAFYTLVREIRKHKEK
KRAS G12C, sequence (P62937 whole entry): as the sequence (P62937 whole entry) above
Description: as §1, §2, §3, §4

KRAS WT = KRAS WT (Homo sapiens, UniProt P01116+P62937); assay: as above; format: biochemical; settings: KRAS WT; read-out: KRAS WT FRET data IC50
KRAS WT, sequence (P01116 1-169 isoform P01116-2 limits assumed): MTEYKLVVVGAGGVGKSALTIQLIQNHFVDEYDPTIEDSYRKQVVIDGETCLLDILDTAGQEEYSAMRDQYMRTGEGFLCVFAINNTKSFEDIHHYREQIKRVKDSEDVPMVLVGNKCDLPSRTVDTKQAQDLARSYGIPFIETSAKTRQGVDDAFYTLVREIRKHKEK
KRAS WT, sequence (P62937 whole entry): as the sequence (P62937 whole entry) above
Description: as §1, §2, §3, §4

KRAS G12D = KRAS G12D (Homo sapiens, UniProt P01116+P62937, G12D); assay: as above; format: biochemical; settings: read-out: KRAS G12D FRET data, IC50
KRAS G12D, sequence (P01116 1-169 isoform P01116-2 G12D limits assumed): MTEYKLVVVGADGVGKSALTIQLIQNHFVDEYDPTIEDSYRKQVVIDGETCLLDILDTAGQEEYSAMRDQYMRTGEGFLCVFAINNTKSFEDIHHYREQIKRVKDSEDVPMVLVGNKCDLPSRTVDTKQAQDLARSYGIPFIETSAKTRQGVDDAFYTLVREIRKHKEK
KRAS G12D, sequence (P62937 whole entry): as the sequence (P62937 whole entry) above
Description: as §1, §2, §3, §4

KRAS G13D = KRAS G13D (Homo sapiens, UniProt P01116+P62937, G13D); assay: as above; format: biochemical; settings: KRAS G13D; read-out: KRAS G13D FRET data IC50
KRAS G13D, sequence (P01116 1-169 isoform P01116-2 G13D limits assumed): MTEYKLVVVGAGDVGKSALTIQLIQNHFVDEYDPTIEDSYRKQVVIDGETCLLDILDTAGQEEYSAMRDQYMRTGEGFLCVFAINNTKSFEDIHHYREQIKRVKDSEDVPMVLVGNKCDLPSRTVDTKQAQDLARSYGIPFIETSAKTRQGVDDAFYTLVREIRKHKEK
KRAS G13D, sequence (P62937 whole entry): as the sequence (P62937 whole entry) above
Description: as §1, §2, §3, §4

KRAS G12V = KRAS G12V (Homo sapiens, UniProt P01116+P62937, G12V); assay: as above; format: biochemical; settings: KRAS G12V; read-out: KRAS G12V FRET data IC50
KRAS G12V, sequence (P01116 1-169 isoform P01116-2 G12V limits assumed): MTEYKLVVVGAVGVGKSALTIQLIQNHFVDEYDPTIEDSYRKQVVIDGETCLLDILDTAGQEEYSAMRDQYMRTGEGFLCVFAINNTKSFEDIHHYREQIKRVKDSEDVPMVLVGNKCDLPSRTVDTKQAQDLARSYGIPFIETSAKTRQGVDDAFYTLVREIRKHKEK
KRAS G12V, sequence (P62937 whole entry): as the sequence (P62937 whole entry) above
Description: as §1, §2, §3, §4

KRAS G12S = KRAS G12S (Homo sapiens, UniProt P01116+P62937, G12S); assay: as above; format: biochemical; settings: read-out: KRAS G12S FRET data, IC50
KRAS G12S, sequence (P01116 1-169 isoform P01116-2 G12S limits assumed): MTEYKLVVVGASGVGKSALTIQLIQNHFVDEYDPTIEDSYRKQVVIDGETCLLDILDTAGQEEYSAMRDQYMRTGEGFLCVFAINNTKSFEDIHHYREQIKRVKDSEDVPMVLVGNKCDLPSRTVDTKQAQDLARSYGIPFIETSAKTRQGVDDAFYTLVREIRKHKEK
KRAS G12S, sequence (P62937 whole entry): as the sequence (P62937 whole entry) above
Description: as §1, §2, §3, §4

[1] = NCI-H358, H358, K-Ras G12C, read-out: Additional H358 Cell Viability assay data (K-Ras G12C, IC50)
[2] = read-out: KRAS G13C FRET data, IC50
[3] = read-out: KRAS G12C FRET data, IC50
[4] = NCI-H358, 120 h, 5-day treatment, read-out: H358 Cell Viability assay data (K-Ras G12C, IC50)
[5] = KRAS G13C, read-out: KRAS G13C FRET data IC50
[6] = KRAS G12C, read-out: KRAS G12C FRET data IC50

| Structure (SMILES) | IC50 (NCI-H358 (K-Ras G12C); [1]) [µM] | IC50 (NRAS G12C) | IC50 (KRAS WT) | IC50 (KRAS G12D) | IC50 (KRAS G13D) | IC50 (KRAS G12V) | IC50 (KRAS G12S) | other results |
| --- | --- | --- | --- | --- | --- | --- | --- | --- |
| CCn1c(-c2cccnc2[C@H](C)OC)c2c3cc(ccc31)-c1cccc(c1)C[C@H](NC(=O)[C@H](C(C)C)N(C)C(=O)[C@H]1CCN(C(=O)/C=C/CN3CC(OC)C3)C1)C(=O)N1CCC[C@H](N1)C(=O)OCC(C)(C)C2 (atropisomer, axis not shown) [Example A204] | 0.01 to 0.1 | – | – | – | – | – | – | – |
| C=CC(=O)N1CC[C@H](C(=O)N(C)[C@H](C(=O)N[C@H]2Cc3cc(O)cc(c3)-c3ccc4c(c3)c(c(-c3ccccc3CCOC)n4C(C)(C)C#N)CC(C)(C)COC(=O)[C@@H]3CCCN(N3)C2=O)C(C)C)C1 [Example A34] | 0.01 to 0.1 | – | – | – | – | – | – | – |
| CCn1c(-c2cccnc2[C@H](C)OC)c2c3cc(ccc31)-c1cc(O)cc(c1)C[C@H](NC(=O)[C@H](C(C)C)N(C)C(=O)[C@H]1CCN(C(=O)OC(C)C)C1)C(=O)N1CCC[C@H](N1)C(=O)OCC(C)(C)C2 [Example A117] | – | 0.1 to 1 µM and 1 to 10 µM | 0.1 to 1 µM and > 10 µM | 1 to 10 µM and > 10 µM | 0.1 to 1 µM and > 10 µM | 1 to 10 µM and 0.01 to 0.1 µM | 0.1 to 1 µM and > 10 µM | IC50 (KRAS G13C; [2]): 0.1 to 1 µM and > 10 µM; IC50 (KRAS G12C; [3]): 1 to 10 µM and 0.01 to 0.1 µM |
| CO[C@@H](C)c1ncccc1-c1c2c3cc(ccc3n1C)-c1csc(n1)C[C@H](NC(=O)[C@H](C(C)C)N(C)C(C)=O)C(=O)N1CCC[C@H](N1)C(=O)OCC(C)(C)C2 (racemic) [Example A103] | – | > 10 µM | > 10 µM | > 10 µM | > 10 µM | > 10 µM | > 10 µM | IC50 (KRAS G13C; [2]): > 10 µM; IC50 (KRAS G12C; [3]): > 10 µM |
| CCn1c(-c2cccnc2[C@H](C)OC)c2c3cc(ccc31)-c1cc(O)cc(c1)C[C@H](NC(=O)[C@H](C(C)C)N(C)C(=O)[C@@H]1C[C@@H]1C)C(=O)N1CCC[C@H](N1)C(=O)OCC(C)(C)C2 [Example A223] | – | – | – | – | – | – | – | IC50 (NCI-H358 (K-Ras G12C); [4]): 0.01 to 0.1 µM |
| CCn1c(-c2ccccc2CCOC)c2c3cc(ccc31)-c1cc(O)cc(c1)C[C@H](NC(=O)[C@H](C(C)C)N(C)C(=O)[C@H]1CCN(C(=O)C#CCN(C)C)C1)C(=O)N1CCC[C@H](N1)C(=O)OCC(C)(C)C2 [Example A038] | – | < 0.01 µM | 1 to 10 µM and > 10 µM | 1 to 10 µM | 1 to 10 µM | 1 to 10 µM and > 10 µM | 1 to 10 µM and > 10 µM | IC50 (KRAS G13C; [5]): 0.1 to 1 µM and 0.01 to 0.1 µM; IC50 (KRAS G12C; [6]): 0.01 to 0.1 µM and < 0.01 µM |
| CCn1c(-c2cccnc2[C@H](C)OC)c2c3cc(ccc31)-c1cc(O)cc(c1)C[C@H](NC(=O)[C@H](C(C)C)N(C)C(=O)[C@@H]1NC[C@@H]3C[C@@H]31)C(=O)N1CCC[C@H](N1)C(=O)OCC(C)(C)C2 [Example A217] | – | – | – | – | – | – | – | IC50 (NCI-H358 (K-Ras G12C); [4]): 0.01 to 0.1 µM |
| C=CC(=O)Nc1cnc(C(=O)N(C)[C@H](C(=O)N[C@H]2Cc3cccc(c3)-c3ccc4c(c3)c(c(-c3cccnc3[C@H](C)OC)n4CC)CC(C)(C)COC(=O)[C@@H]3CCCN(N3)C2=O)C(C)C)n1C [Example A525] | < 0.01 | – | – | – | – | – | – | – |
| C=CC(=O)N1CC[C@H](C(=O)N(C)[C@H](C(=O)N[C@H]2Cc3nc(cs3)-c3ccc4c(n3)c(c(-c3cccnc3[C@H](C)OC)n4CC)CC(C)(C)COC(=O)[C@@H]3CCCN(N3)C2=O)C(C)C)C1 [Example A347, (2S)—N-[(7S,13S)-21-ethyl-20-{2-[(1S)-1-methoxyethyl]pyridin-3-yl}-17,17-dimethyl-8,14-dioxo-15-oxa-4-thia-9,21,25,27,28-pentaazapentacyclo[17.5.2.1^{2,5}.1^{9,13}.0^{22,26}]octacosa-1(25),2,5(25),19,22(26),23-hexaen-7-yl]-3-methy-2-{N-methyl-1-[(3S)-1-(prop-2-enoyl)pyrrolidin-3-yl]formamido}butanamide] | 0.1 to 1 | – | – | – | – | – | – | – |
| CCn1c(-c2cccnc2[C@H](C)OC)c2c3cc(ccc31)-c1cc(O)cc(c1)C[C@H](NS(=O)(=O)N1CCN(C)CC1)C(=O)N1CCC[C@H](N1)C(=O)OCC(C)(C)C2 (racemic) [Example A193] | – | > 10 µM | > 10 µM | > 10 µM | > 10 µM | > 10 µM | > 10 µM | IC50 (KRAS G13C; [2]): > 10 µM; IC50 (KRAS G12C; [3]): > 10 µM |
| C=CC(=O)N1CC[C@H](C(=O)N(C)[C@H](C(=O)N[C@H]2Cc3cc(O)cc(c3)-c3ccc4c(c3)c(c(-c3cccnc3[C@@H](OC)C3CC3)n4CC)CC(C)(C)COC(=O)[C@@H]3CCCN(N3)C2=O)C(C)C)C1 (atropisomer, axis not shown) [Example A206] | 0.1 to 1 | – | – | – | – | – | – | – |
| CCn1c(-c2cccnc2[C@H](C)OC)c2c3cc(ccc31)-c1cc(C#N)cc(c1)C[C@H](NC(=O)[C@H](C(C)C)N(C)C(C)=O)C(=O)N1CCC[C@H](N1)C(=O)OCC(C)(C)C2 (atropisomer, axis not shown) [Example A430] | – | > 10 µM | > 10 µM | > 10 µM | > 10 µM | > 10 µM | > 10 µM | IC50 (KRAS G13C; [2]): > 10 µM; IC50 (KRAS G12C; [3]): > 10 µM |
| C=CC(=O)N1CC[C@H](C(=O)N(C)[C@H](C(=O)N[C@H]2Cc3cc(O)cc(c3)-c3ccc4c(c3)c(c(-c3ccncc3COC)n4CC)CC(C)(C)COC(=O)[C@@H]3CCCN(N3)C2=O)C(C)C)C1 [Example A91] | < 0.01 | – | – | – | – | – | – | – |
| CCn1c(-c2cccnc2COC)c2c3cc(ccc31)-c1cc(C)cc(c1)C[C@H](NC(=O)[C@H](C(C)C)N(C)C(=O)[C@H]1CCN(C(=O)C#CCN(C)C)C1)C(=O)N1CCC[C@H](N1)C(=O)OCC(C)(C)C2 [Example A157] | < 0.01 | – | – | – | – | – | – | – |
| C=CC(=O)N1CC[C@H](C(=O)N(C)[C@H](C(=O)N[C@H]2C[C@H]3CN(CCO3)c3ccc4c(c3)c(c(-c3cccnc3[C@H](C)OC)n4CC)CC(C)(C)COC(=O)[C@@H]3CCCN(N3)C2=O)C(C)C)C1 (atropisomer, axis not shown) [Example A378] | 0.1 to 1 | – | – | – | – | – | – | – |
| CCn1c(-c2cccnc2[C@H](C)OC)c2c3cc(ccc31)-c1cc(O)cc(c1)C[C@H](NC(=O)[C@H](C(C)C)N(C)C(=O)C1CCCC1)C(=O)N1CCC[C@H](N1)C(=O)OCC(C)(C)C2 [Example A219] | – | – | – | – | – | – | – | IC50 (NCI-H358 (K-Ras G12C); [4]): 0.1 to 1 µM |
| CCn1c(-c2cccnc2[C@H](C)OC)c2c3cc(ccc31)-c1csc(n1)C[C@H](NC(=O)[C@H](C(C)C)N1CCC3(CCN(C(=O)OC)C3)C1=O)C(=O)N1CCC[C@H](N1)C(=O)OCC(C)(C)C2 (stereo partly drawn) [Example A221] | – | – | – | – | – | – | – | IC50 (NCI-H358 (K-Ras G12C); [4]): 0.1 to 1 µM |
| C=CS(=O)(=O)N1CC[C@H](C(=O)N(C)[C@H](C(=O)N[C@H]2Cc3cc(O)cc(c3)-c3ccc4c(c3)c(c(-c3cccnc3COC)n4CC)CC(C)(C)COC(=O)[C@@H]3CCCN(N3)C2=O)C(C)C)C1 [Example A069] | – | 0.01 to 0.1 µM | 0.1 to 1 µM | > 10 µM | 1 to 10 µM | 0.1 to 1 µM | 1 to 10 µM | IC50 (KRAS G13C; [5]): 0.01 to 0.1 µM; IC50 (KRAS G12C; [6]): 0.01 to 0.1 µM |
